This is an account of results in patent publication US20120219638A1, “Method and Compositions for Treating Plant Infections” (priority 2006, published 2012).

Data set [1] has as its system Erwinia amylovora (fire blight). The data set is described as follows: Fire blight field trial on apple trees, one spray at full bloom: disease incidence and severity. Particulars: for Disease incidence (# of trees): standard, concentration not given, one spray at full bloom. Type of data set: in vivo. The procedure: Experimental design: Three cultivars, 8 treatments and four blocks. In each block there is one tree per cultivar per treatment (four trees per cultivar per treatment). Treatments are randomized within each cultivar in each block.
When the forecast predicts favorable conditions, treatments were applied within 24-48 hours. Note: Oxysilver compound was a mixture of oxysilver bisulphate and oxysilver nitrate, with oxysilver bisulphate as the dominant compound.
(§1) Three apple varieties (Gala, Fuji, and Golden) were treated with one spray of oxysilver at full-bloom. There were a total of eight treatments: 1. Untreated control, 2. Streptomycin standard, 3. Oxytetracycline standard, 4. Oxysilver compound 0.005% (w/v), 5. Oxysilver compound 0.05%, 6. Oxysilver compound 0.1%, 7. Oxysilver compound 0.5%, and 8. Oxysilver compound 1.0%. The trees were evaluated once a week for disease severity and phytotoxicity. Apples were harvested. Each treatment and variety combination was repeated four times. Disease incidence through blossom infections was monitored. Infections four weeks or so after bloom are not due to blossom infections and are not typically treated by growers.
(§2) Disease incidence was recorded as the number of trees showing infections per treatment. Disease severity was rated as follows: 0—No disease, 1—One—two infected shoots, 2—Two-four infected shoots, 3—Four or more infected shoots or one systemic canker, 4—Two or more systemic cankers. […] After harvest, apples from untreated trees and trees treated with 0.005% and 1% oxysilver compound were sent to an independent lab for testing of silver accumulation in the fruit. For comparison, oxysilver compound was sprayed directly on some apples.
(§3) Statistical analysis was done using SAS 9.3 Proc glimmix and Proc GLM.

Data set [2] concerns apple varieties (Gala, Fuji, and Golden). In words: Phytotoxicity of leaf and fruit on treated apple trees. Format: in vivo. To be noted: standard, concentration not given; for Phytotoxicity (leaf) (average): rating 0 (none) to 4 (50-100% of leaf area necrotic); for Phytotoxicity (fruit) (average): rating 0 (none) to 4 (severe deformation). As for the experimental part:
as §1, §2, §3

Take `CN(C)[C@@H]1C(O)=C(C(N)=O)C(=O)[C@@]2(O)C(O)=C3C(=O)c4c(O)cccc4[C@@](C)(O)[C@H]3[C@H](O)[C@@H]12` [Oxytetracycline, oxytetracycline]: the “Disease incidence (# of trees)” value in data set [1] is recorded as 1 ab # of trees. For the same molecule, in data set [2], the “Phytotoxicity (leaf) (average)” value was found to be 0 c and the “Phytotoxicity (fruit) (average)” value is on record as 0 c.

Take `[H]/N=C(/N)N[C@H]1[C@H](O)[C@@H](O)[C@H](O[C@@H]2O[C@@H](C)[C@](O)(C=O)[C@H]2O[C@@H]2O[C@@H](CO)[C@H](O)[C@@H](O)[C@@H]2NC)[C@@H](N/C(N)=N\[H])[C@@H]1O` [Streptomycin, streptomycin]: in data set [1] (all oxysilver treatments and streptomycin standard, p=0.05, systemic cankers in untreated control), the “Disease severity compared with untreated control” value was “significantly higher in the untreated control”. Further, the “Disease incidence (# of trees)” value in data set [1] is recorded as 1 ab # of trees. Further, in data set [2], the “Phytotoxicity (leaf) (average)” value is given as 0 c and the “Phytotoxicity (fruit) (average)” value is 0 c.
